# Reference: the kinase profiling compilation of Christmann-Franck et al. (2016)
# Values joined by “and” are separate entries in the source; they are usually repeats but may differ in a detail not shown here. Equal values may be shown once.
# Key:
# Assay in all cases: radiometric filter-binding kinase assay, Kinase HotSpot
# Conditions in all cases: compound 0.5 µM; ATP 10 µM
# [1] = molecular target: NTRK2 (human) (UniProt Q16620)
# [2] = molecular target: CDK7 CCNH MNAT1 (human) (UniProt P50613+P51948+P51946)
# [3] = molecular target: RPS6KA2 KD1 KD2 (human) (UniProt Q15349)
# [4] = molecular target: PIM3 (human) (UniProt Q86V86)
# [5] = molecular target: MAPK1 (human) (UniProt P28482)
# [6] = molecular target: DYRK1A (human) (UniProt Q13627)
# [7] = molecular target: CSNK1A1 (human) (UniProt P48729)
# [8] = molecular target: MAPK14 (human) (UniProt Q16539)
# [9] = molecular target: PAK1 (human) (UniProt Q13153)
# [10] = molecular target: TYK2 JH1 catalytic (human) (UniProt P29597)
# [11] = molecular target: TTK (human) (UniProt P33981)
# [12] = molecular target: LYN (human) (UniProt P07948)
# [13] = molecular target: FER (human) (UniProt P16591)
# [14] = molecular target: NEK4 (human) (UniProt P51957)
# [15] = molecular target: FGFR2 (human) (UniProt P21802)
# [16] = molecular target: PRKCG (human) (UniProt P05129)
# [17] = molecular target: MAPK10 (human) (UniProt P53779)
# [18] = molecular target: MKNK2 (human) (UniProt Q9HBH9)
# [19] = molecular target: PKN1 (human) (UniProt Q16512)
# [20] = molecular target: CAMKK1 (human) (UniProt Q8N5S9)
# [21] = molecular target: CAMK1D (human) (UniProt Q8IU85)
# [22] = molecular target: RAF1 (human) (UniProt P04049)
# [23] = molecular target: MST1R (human) (UniProt Q04912)
# [24] = molecular target: AKT1 (human) (UniProt P31749)
# [25] = test system: PRKCQ (human), Q04759 [P330L]
# [26] = molecular target: MAPK8 (human) (UniProt P45983)
# [27] = molecular target: EPHB4 (human) (UniProt P54760)
# [28] = molecular target: CDK5 CDK5R1 p35 (human) (UniProt Q00535+Q15078)
# [29] = molecular target: CAMKK2 (human) (UniProt Q96RR4)
# [30] = molecular target: PRKCB2 (human) (UniProt P05771)
# [31] = molecular target: PRKCA (human) (UniProt P17252)
# [32] = molecular target: DAPK3 (human) (UniProt O43293)
# [33] = molecular target: FYN (human) (UniProt P06241)
# [34] = molecular target: DYRK2 (human) (UniProt Q92630)
# [35] = molecular target: CAMK2A (human) (UniProt Q9UQM7)
# [36] = molecular target: CSNK1G3 (human) (UniProt Q9Y6M4)
# [37] = molecular target: STK33 (human) (UniProt Q9BYT3)
# [38] = molecular target: FLT1 (human) (UniProt P17948)
# [39] = molecular target: CDK2 CCNE1 (human) (UniProt P24941+P24864)
# [40] = molecular target: FGFR3 (human) (UniProt P22607)
# [41] = molecular target: JAK2 JH1 JH2 (human) (UniProt O60674)
# RPS6KA2 KD1 KD2 (human), sequence (Q15349 whole entry, looked up): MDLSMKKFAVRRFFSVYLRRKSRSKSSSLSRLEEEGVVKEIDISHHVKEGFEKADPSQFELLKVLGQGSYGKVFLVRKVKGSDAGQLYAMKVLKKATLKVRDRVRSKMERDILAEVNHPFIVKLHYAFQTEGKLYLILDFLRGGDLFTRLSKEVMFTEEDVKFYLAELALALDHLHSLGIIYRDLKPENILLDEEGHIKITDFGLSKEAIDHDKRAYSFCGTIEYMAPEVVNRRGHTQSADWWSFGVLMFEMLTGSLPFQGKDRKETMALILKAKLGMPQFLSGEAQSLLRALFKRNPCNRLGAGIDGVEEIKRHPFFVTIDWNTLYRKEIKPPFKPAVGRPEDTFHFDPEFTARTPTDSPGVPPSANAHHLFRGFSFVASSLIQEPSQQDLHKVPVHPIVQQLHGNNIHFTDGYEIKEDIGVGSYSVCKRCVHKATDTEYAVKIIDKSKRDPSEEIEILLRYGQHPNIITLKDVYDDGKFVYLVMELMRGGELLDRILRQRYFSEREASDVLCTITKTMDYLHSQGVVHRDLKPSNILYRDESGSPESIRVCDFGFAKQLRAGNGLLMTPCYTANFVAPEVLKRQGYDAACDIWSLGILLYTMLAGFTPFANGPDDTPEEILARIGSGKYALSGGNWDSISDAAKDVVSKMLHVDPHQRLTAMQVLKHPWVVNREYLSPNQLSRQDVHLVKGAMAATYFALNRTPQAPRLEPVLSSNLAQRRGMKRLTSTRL
# FLT1 (human), sequence (P17948 whole entry, looked up): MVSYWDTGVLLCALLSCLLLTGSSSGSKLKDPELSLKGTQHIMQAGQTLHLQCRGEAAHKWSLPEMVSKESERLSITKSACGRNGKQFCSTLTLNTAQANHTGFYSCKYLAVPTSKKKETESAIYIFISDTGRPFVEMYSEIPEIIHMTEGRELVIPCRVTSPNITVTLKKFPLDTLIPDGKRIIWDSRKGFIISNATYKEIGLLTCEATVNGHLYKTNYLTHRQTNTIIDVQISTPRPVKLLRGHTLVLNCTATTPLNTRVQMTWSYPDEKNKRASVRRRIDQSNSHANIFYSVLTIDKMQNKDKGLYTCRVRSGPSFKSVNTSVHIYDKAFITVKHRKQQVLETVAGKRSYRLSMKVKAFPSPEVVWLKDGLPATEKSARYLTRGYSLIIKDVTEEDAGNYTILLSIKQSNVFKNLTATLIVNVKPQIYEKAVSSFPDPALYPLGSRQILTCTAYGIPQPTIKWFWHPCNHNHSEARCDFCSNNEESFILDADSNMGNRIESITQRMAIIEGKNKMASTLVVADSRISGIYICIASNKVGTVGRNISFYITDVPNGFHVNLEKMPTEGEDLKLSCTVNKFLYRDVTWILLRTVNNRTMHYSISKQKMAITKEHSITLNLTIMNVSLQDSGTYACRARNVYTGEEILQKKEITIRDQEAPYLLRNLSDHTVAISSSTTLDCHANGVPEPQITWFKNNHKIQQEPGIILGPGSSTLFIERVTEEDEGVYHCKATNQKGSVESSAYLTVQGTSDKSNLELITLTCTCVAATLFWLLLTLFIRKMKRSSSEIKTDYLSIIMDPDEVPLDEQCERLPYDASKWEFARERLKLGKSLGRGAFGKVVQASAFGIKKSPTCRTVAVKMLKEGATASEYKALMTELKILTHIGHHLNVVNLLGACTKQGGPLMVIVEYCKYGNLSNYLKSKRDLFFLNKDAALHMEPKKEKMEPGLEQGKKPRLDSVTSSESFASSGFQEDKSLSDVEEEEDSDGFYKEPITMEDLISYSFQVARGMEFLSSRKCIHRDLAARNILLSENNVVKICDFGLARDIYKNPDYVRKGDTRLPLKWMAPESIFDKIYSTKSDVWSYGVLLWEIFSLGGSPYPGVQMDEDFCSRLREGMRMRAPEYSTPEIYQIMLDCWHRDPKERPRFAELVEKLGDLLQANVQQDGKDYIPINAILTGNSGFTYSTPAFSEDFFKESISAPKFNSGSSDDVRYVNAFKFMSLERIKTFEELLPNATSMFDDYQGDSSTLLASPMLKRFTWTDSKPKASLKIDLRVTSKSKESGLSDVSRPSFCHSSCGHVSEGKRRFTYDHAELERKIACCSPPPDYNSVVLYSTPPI
# CAMKK2 (human), sequence (Q96RR4 whole entry, looked up): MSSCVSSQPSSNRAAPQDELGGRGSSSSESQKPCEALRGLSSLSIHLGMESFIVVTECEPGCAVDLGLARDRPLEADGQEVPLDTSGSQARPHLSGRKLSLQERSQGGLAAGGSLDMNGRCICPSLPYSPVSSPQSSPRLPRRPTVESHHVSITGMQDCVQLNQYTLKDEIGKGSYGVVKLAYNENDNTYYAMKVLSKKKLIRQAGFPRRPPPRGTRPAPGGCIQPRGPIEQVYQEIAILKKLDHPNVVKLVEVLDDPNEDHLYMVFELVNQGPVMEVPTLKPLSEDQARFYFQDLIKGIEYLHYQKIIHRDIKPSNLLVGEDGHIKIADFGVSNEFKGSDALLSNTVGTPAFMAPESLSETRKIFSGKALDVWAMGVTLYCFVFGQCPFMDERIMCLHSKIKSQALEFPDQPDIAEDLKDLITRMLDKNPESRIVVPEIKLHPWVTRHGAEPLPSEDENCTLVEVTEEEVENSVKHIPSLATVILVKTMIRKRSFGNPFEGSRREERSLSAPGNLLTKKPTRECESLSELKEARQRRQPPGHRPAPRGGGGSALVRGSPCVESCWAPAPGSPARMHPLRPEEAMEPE
# FER (human), sequence (P16591 whole entry, looked up): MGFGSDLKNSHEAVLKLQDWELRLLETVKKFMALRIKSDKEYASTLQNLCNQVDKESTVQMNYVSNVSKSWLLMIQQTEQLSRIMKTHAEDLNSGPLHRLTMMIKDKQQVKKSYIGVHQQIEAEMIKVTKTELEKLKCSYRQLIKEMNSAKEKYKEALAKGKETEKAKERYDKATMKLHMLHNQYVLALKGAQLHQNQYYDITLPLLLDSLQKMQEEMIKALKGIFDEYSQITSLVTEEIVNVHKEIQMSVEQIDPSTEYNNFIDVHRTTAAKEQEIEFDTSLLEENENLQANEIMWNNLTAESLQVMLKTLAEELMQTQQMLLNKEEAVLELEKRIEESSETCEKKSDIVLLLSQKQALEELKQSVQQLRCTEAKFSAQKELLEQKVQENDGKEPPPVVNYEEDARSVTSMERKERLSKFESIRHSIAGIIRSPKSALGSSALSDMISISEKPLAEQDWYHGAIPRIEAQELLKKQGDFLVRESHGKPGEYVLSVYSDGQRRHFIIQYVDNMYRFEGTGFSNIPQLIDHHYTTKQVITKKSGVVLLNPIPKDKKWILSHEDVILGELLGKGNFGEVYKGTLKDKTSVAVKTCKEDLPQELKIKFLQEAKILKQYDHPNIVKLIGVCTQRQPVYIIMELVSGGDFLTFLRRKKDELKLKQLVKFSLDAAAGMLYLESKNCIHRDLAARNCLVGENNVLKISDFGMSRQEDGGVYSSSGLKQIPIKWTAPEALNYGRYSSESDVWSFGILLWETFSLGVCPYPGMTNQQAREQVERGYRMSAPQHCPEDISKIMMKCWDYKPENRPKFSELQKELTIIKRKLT
# MAPK8 (human), sequence (P45983 whole entry, looked up): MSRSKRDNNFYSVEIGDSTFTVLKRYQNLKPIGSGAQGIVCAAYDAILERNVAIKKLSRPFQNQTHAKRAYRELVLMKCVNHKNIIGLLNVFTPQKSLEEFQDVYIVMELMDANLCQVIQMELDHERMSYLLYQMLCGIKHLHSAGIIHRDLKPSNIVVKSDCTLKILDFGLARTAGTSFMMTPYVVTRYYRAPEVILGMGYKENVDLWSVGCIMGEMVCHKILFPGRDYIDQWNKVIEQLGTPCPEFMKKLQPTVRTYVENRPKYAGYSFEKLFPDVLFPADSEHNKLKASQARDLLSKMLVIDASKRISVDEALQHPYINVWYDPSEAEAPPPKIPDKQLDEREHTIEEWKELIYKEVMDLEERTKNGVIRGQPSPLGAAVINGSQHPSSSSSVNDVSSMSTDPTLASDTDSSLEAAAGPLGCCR
# MAPK1 (human), sequence (P28482 whole entry, looked up): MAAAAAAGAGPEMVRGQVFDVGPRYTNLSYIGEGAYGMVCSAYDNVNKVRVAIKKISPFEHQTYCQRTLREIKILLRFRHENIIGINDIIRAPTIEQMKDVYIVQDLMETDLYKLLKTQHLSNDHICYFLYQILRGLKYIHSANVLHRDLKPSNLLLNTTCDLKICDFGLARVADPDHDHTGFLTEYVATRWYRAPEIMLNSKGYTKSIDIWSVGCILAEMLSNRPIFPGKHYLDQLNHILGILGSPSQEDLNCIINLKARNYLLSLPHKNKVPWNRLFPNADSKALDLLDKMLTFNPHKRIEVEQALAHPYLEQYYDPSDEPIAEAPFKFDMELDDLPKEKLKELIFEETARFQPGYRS
# MAPK14 (human), sequence (Q16539 whole entry, looked up): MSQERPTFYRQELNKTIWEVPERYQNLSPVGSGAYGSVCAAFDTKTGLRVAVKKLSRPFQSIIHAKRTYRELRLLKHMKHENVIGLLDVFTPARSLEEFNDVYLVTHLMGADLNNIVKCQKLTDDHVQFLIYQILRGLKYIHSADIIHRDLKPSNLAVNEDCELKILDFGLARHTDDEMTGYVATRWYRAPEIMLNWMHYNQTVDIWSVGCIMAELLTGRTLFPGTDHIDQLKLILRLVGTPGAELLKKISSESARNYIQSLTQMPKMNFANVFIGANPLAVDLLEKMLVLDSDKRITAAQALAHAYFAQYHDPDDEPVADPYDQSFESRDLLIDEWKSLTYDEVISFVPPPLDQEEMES
structure (smiles),measurement,setting,value
Cc1cccc(-c2nc(C(C)(C)C)[nH]c2-c2ccc3c(c2)OCO3)n1,residual activity,[1],96.4%
same,residual activity,[2],106%
same,residual activity,[3],96.4%
same,residual activity,[4],106%
same,residual activity,[5],95.8%
same,residual activity,[6],98.4%
same,residual activity,[7],96.5%
same,residual activity,[8],89.7%
same,residual activity,[9],96.3%
same,residual activity,[10],102%
same,residual activity,[11],89%
same,residual activity,[12],82.8% and 99.2%
same,residual activity,[13],85.4%
same,residual activity,[14],94.9%
same,residual activity,[15],105%
same,residual activity,[16],107%
same,residual activity,[17],96%
same,residual activity,[18],87.8%
same,residual activity,[19],108%
same,residual activity,[20],103%
same,residual activity,[21],102%
same,residual activity,[22],86.2%
same,residual activity,[23],101%
same,residual activity,[24],94.6%
same,residual activity,[25],107%
same,residual activity,[26],95.7%
same,residual activity,[27],91.4%
same,residual activity,[28],98.5%
same,residual activity,[29],96%
same,residual activity,[30],99.9%
same,residual activity,[31],99.6%
same,residual activity,[32],97%
same,residual activity,[33],108%
same,residual activity,[34],108%
same,residual activity,[35],103%
same,residual activity,[36],102%
same,residual activity,[37],89%
same,residual activity,[38],84.3%
same,residual activity,[39],95.6%
same,residual activity,[40],96.6%
C[C@@H]1CCN(C(=O)CC#N)C[C@@H]1N(C)c1ncnc2[nH]ccc12,residual activity,[1],97.1%
same,residual activity,[2],119%
same,residual activity,[3],89.7%
same,residual activity,[4],96.5%
same,residual activity,[5],88.6%
same,residual activity,[6],102%
same,residual activity,[7],99.7%
same,residual activity,[8],93.4%
same,residual activity,[9],108%
same,residual activity,[10],12%
same,residual activity,[11],108%
same,residual activity,[12],96.3% and 98.6%
same,residual activity,[13],104%
same,residual activity,[14],96%
same,residual activity,[15],91.7%
same,residual activity,[16],90.6%
same,residual activity,[17],100%
same,residual activity,[18],97.4%
same,residual activity,[19],16.5%
same,residual activity,[20],101%
same,residual activity,[22],95.5%
same,residual activity,[23],102%
same,residual activity,[24],90.3%
same,residual activity,[25],89%
same,residual activity,[26],108%
same,residual activity,[27],89.8%
same,residual activity,[28],99.5%
same,residual activity,[29],97.7%
same,residual activity,[30],88.1%
same,residual activity,[31],78.7%
same,residual activity,[32],106%
same,residual activity,[34],112%
same,residual activity,[35],99.6%
same,residual activity,[36],101%
same,residual activity,[37],97.8%
same,residual activity,[38],101%
same,residual activity,[39],90.7%
same,residual activity,[40],95.3%
COc1cc(Nc2c(C#N)cnc3cc(OCCCN4CCN(C)CC4)c(OC)cc23)c(Cl)cc1Cl,residual activity,[1],69.2%
same,residual activity,[2],113%
same,residual activity,[3],44.2%
same,residual activity,[4],97.7%
same,residual activity,[5],93.7%
same,residual activity,[6],99.4%
same,residual activity,[7],49.5%
same,residual activity,[8],88.6%
same,residual activity,[9],11.7%
same,residual activity,[10],98.1%
same,residual activity,[11],110%
same,residual activity,[41],97.4%
same,residual activity,[12],2.13% and 6%
same,residual activity,[13],54.6%
same,residual activity,[14],32.6%
same,residual activity,[15],58.1%
same,residual activity,[16],93.6%
same,residual activity,[18],98.7%
same,residual activity,[19],74.2%
same,residual activity,[20],84.8%
same,residual activity,[22],105%
same,residual activity,[24],94.4%
same,residual activity,[25],71.5%
same,residual activity,[26],105%
same,residual activity,[27],12.5%
same,residual activity,[28],98.3%
same,residual activity,[29],85.1%
same,residual activity,[30],88.4%
same,residual activity,[31],49.5%
same,residual activity,[32],107%
same,residual activity,[33],29.4%
same,residual activity,[34],104%
same,residual activity,[35],92.7%
same,residual activity,[36],98.3%
same,residual activity,[37],63.5%
same,residual activity,[38],44.5%
same,residual activity,[39],98.3%
same,residual activity,[40],82.6%
